Non-standard residues stand in square brackets, D forms with d. Residues, ends and D or L forms follow the SMILES beside them. 1Nal = N[C@@H](Cc1cccc2ccccc12)C(=O)O; β3hI = CC[C@H](C)[C@H](N)CC(=O)O; Nle = CCCC[C@H](N)C(=O)O; β3hA = C[C@H](N)CC(=O)O; Aib = CC(C)(N)C(=O)O; βAla = NCCC(=O)O
Tests used:
human PTH-1 receptor = molecular target: T1, human PTH-1 receptor (Homo sapiens, UniProt Q03431); assay: Reporter gene assay (CRE-luciferase) for agonist activity in transiently transfected HEK-293 cells; type: cell-based; settings: for hPTHR-2/hPTHR-1: Table 3, selectivity for hPTH-1 receptor over hPTH-2 receptor
T1 construct: expressed in transfected cells; host or cells: HEK-293
T1 sequence (Q03431 27-593): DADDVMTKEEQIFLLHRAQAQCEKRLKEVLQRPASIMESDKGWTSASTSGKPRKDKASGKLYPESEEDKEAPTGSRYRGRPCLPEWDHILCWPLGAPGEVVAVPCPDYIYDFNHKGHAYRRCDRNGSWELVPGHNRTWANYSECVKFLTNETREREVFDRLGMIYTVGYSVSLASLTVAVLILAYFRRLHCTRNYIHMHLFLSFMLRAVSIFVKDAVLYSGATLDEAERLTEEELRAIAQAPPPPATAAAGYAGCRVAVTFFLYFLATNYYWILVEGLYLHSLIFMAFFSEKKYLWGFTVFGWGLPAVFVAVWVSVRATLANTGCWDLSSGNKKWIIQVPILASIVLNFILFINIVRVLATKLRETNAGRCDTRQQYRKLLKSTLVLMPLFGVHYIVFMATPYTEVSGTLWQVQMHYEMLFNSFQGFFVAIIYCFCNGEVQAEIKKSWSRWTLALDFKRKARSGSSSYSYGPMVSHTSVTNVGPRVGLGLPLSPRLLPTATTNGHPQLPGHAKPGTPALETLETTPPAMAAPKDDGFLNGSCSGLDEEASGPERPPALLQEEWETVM
Outline: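 HEK-293 cells transiently transfected with SV40-driven human PTH-1 receptor and CRE-luciferase reporter, exposed to serial compound dilutions for 4-5 h, then lysed for luciferase readout; efficacy and EC50 by non-linear regression, PTH (1-34) as internal control, n≥3. Selectivity measured in analogous human PTH-2 receptor luciferase reporter assays.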

human PTH-2 receptor = molecular target: T2, human PTH-2 receptor (Homo sapiens, UniProt P49190); assay: Luciferase-based transcriptional reporter gene assay for selectivity; type: cell-based
T2 construct: expressed in transfected cells
Method: Agonist activity of compounds on the human PTH-1 receptor was determined in a reporter gene assay by transiently transfecting HEK-293 cells with plasmids encoding human PTH-1 receptor under control of the SV40 promoter and a luciferase reporter gene under control of cAMP responsive elements (CRE). See Himmler et al, J. Recept. Res. 13 (1993) 79-94, for further guidance on this assay. Transfected cells were exposed to serial dilutions of compounds for 4-5 hours followed by lysis of cells, determination of luciferase activity, and determination of compound efficacies and EC50 values through non-linear regression.
PTH (1-34) was used as an internal control in each experiment and compounds were tested in at least three independent experiments. To determine selectivity, compounds were tested in luciferase-based transcriptional reporter gene assays expressing the human PTH-2 receptor.

T2 sequence (P49190 25-550): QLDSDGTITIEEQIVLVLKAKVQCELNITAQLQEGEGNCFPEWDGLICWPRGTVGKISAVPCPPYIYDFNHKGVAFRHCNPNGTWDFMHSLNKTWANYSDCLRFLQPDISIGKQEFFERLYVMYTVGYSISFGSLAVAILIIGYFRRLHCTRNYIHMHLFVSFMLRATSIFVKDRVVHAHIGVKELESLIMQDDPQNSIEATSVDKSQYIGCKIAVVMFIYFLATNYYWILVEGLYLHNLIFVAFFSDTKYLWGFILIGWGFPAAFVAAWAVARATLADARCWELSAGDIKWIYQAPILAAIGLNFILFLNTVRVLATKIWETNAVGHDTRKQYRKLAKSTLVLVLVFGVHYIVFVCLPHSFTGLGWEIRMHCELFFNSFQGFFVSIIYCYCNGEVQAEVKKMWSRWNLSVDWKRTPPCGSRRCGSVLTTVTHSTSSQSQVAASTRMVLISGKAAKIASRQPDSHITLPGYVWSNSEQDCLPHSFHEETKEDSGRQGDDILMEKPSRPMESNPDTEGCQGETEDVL

Structure (SMILES)	EC50 (human PTH-1 receptor) [nM]	hPTHR-2/hPTHR-1 (human PTH-1 receptor; ratio of EC50 values)	EC50 (human PTH-2 receptor) [nM]	potency at the hPTH-1 receptor compared to PTH (1-34) (human PTH-1 receptor; in words)	Selectivity hPTHR-2/hPTHR-1 (human PTH-1 receptor; Table 4 comparison data, ratio of EC50 values)
CCCC[C@H](NC(=O)[C@H](CC(C)C)NC(=O)[C@H](CCC(N)=O)NC(=O)[C@@H](NC(=O)[C@H](CCC(=O)O)NC(=O)[C@H](CO)NC(=O)[C@@H](NC(=O)C(C)(C)N)C(C)C)[C@@H](C)CC)C(=O)N[C@@H](Cc1c[nH]cn1)C(=O)N[C@@H](CO)C(=O)N[C@@H](CC(C)C)C(=O)NCC(=O)N[C@@H](CCCCN)C(=O)N[C@@H](Cc1c[nH]cn1)C(=O)N[C@@H](CC(C)C)C(=O)N[C@@H](CCCCN)C(=O)N[C@@H](CO)C(=O)N[C@H](CC(=O)N[C@@H](CCC(=O)O)C(=O)N[C@@H](CCCNC(=N)N)C(=O)N[C@H](C(=O)N[C@@H](CCC(=O)O)C(=O)N[C@@H](Cc1cccc2ccccc12)C(=O)N[C@@H](CC(C)C)C(=O)N[C@@H](CCCNC(=N)N)C(=O)N[C@@H](CCCCN)C(=O)N[C@@H](CC(C)C)C(=O)N[C@@H](CC(C)C)C(=O)N[C@@H](CCC(N)=O)C(=O)N[C@@H](CCCNC(=N)N)C(=O)N[C@H](C(N)=O)C(C)C)C(C)C)[C@@H](C)CC [SEQ ID NO: 45, [Aib^1, Nle^8, Ser^10, Lys^16, β-hIle^18,1-Nal^23, Leu^27, Arg^30] hPTH (1-31)-NH2] (H-[Aib]VSEIQL[Nle]HSLGKHLKS[β3hI]ERVE[1Nal]LRKLLQRV-NH2)	0.09	72	6	–	–
CCCC[C@H](NC(=O)[C@H](CC(C)C)NC(=O)[C@H](CCC(N)=O)NC(=O)[C@@H](NC(=O)[C@H](CCC(=O)O)NC(=O)[C@H](CO)NC(=O)[C@@H](NC(=O)[C@@H](N)CO)C(C)C)[C@@H](C)CC)C(=O)N[C@@H](Cc1c[nH]cn1)C(=O)N[C@@H](CO)C(=O)N[C@@H](CC(C)C)C(=O)NCC(=O)N[C@@H](CCCCN)C(=O)N[C@@H](Cc1c[nH]cn1)C(=O)N[C@@H](CC(C)C)C(=O)N[C@@H](CC(N)=O)C(=O)N[C@@H](CO)C(=O)N[C@H](CC(=O)N[C@@H](CCC(=O)O)C(=O)N[C@@H](CCCNC(=N)N)C(=O)N[C@H](C(=O)N[C@@H](CCC(=O)O)C(=O)N[C@@H](Cc1cccc2ccccc12)C(=O)N[C@@H](CC(C)C)C(=O)N[C@@H](CCCNC(=N)N)C(=O)N[C@@H](CCCCN)C(=O)N[C@@H](CC(C)C)C(=O)N[C@@H](CC(C)C)C(=O)N[C@@H](CCC(N)=O)C(=O)N[C@@H](CC(=O)O)C(=O)N[C@H](C(=O)N[C@@H](Cc1c[nH]cn1)C(=O)N[C@@H](CC(N)=O)C(=O)N[C@@H](Cc1ccccc1)C(N)=O)C(C)C)C(C)C)[C@@H](C)CC [SEQ ID NO: 23, [Nle^8, Ser^10, β-hIle^18,1-Nal^23, Leu^27] hPTH (1-34)-NH2] (H-SVSEIQL[Nle]HSLGKHLNS[β3hI]ERVE[1Nal]LRKLLQDVHNF-NH2)	0.18	95	17	–	–
CCCC[C@H](NC(=O)[C@H](CC(C)C)NC(=O)[C@H](CCC(N)=O)NC(=O)[C@@H](NC(=O)[C@H](CCC(=O)O)NC(=O)[C@H](CO)NC(=O)[C@@H](NC(=O)[C@@H](N)CO)C(C)C)[C@@H](C)CC)C(=O)N[C@@H](Cc1c[nH]cn1)C(=O)N[C@@H](CC(N)=O)C(=O)N[C@@H](CC(C)C)C(=O)NCC(=O)N[C@@H](CCCCN)C(=O)N[C@@H](Cc1c[nH]cn1)C(=O)N[C@@H](CC(C)C)C(=O)N[C@@H](CC(N)=O)C(=O)N[C@@H](CO)C(=O)N[C@H](CC(=O)N[C@@H](CCC(=O)O)C(=O)N[C@@H](CCCNC(=N)N)C(=O)N[C@H](C(=O)N[C@@H](CCC(=O)O)C(=O)N[C@@H](Cc1cccc2ccccc12)C(=O)N[C@@H](CC(C)C)C(=O)N[C@@H](CCCNC(=N)N)C(=O)N[C@@H](CCCCN)C(=O)N[C@@H](CC(C)C)C(=O)N[C@@H](CC(C)C)C(=O)N[C@@H](CCC(N)=O)C(=O)N[C@@H](CC(=O)O)C(=O)N[C@H](C(N)=O)C(C)C)C(C)C)[C@@H](C)CC [SEQ ID NO: 1, [Nle^8, β-hIle^18,1-Nal^23, Leu^27] hPTH-(1-31)-NH2] (H-SVSEIQL[Nle]HNLGKHLNS[β3hI]ERVE[1Nal]LRKLLQDV-NH2; N-terminus assumed)	0.09	339	32	Improved potency	–
CCCC[C@H](NC(=O)[C@H](CC(C)C)NC(=O)[C@H](CCC(N)=O)NC(=O)[C@@H](NC(=O)[C@H](CCC(=O)O)NC(=O)[C@H](CO)NC(=O)[C@@H](NC(=O)[C@@H](N)CO)C(C)C)[C@@H](C)CC)C(=O)N[C@@H](Cc1c[nH]cn1)C(=O)N[C@@H](CC(N)=O)C(=O)N[C@@H](CC(C)C)C(=O)NCC(=O)N[C@@H](CCCCN)C(=O)N[C@@H](Cc1c[nH]cn1)C(=O)N[C@@H](CC(C)C)C(=O)N[C@@H](CCCCN)C(=O)N[C@@H](CO)C(=O)N[C@H](CC(=O)N[C@@H](CCC(=O)O)C(=O)N[C@@H](CCCNC(=N)N)C(=O)N[C@H](C(=O)N[C@@H](CCC(=O)O)C(=O)N[C@@H](Cc1cccc2ccccc12)C(=O)N[C@@H](CC(C)C)C(=O)N[C@@H](CCCNC(=N)N)C(=O)N[C@@H](CCCCN)C(=O)N[C@@H](CC(C)C)C(=O)N[C@@H](CC(C)C)C(=O)N[C@@H](CCC(N)=O)C(=O)N[C@@H](CCCNC(=N)N)C(=O)N[C@H](C(=O)N[C@@H](Cc1c[nH]cn1)C(=O)N[C@@H](CC(N)=O)C(=O)N[C@@H](Cc1ccccc1)C(N)=O)C(C)C)C(C)C)[C@@H](C)CC [SEQ ID NO: 37, [Nle^8, Lys^16, β-hIle^18,1-Nal^23, Leu^27, Arg^30] hPTH (1-34)-NH2] (H-SVSEIQL[Nle]HNLGKHLKS[β3hI]ERVE[1Nal]LRKLLQRVHNF-NH2)	0.14	97	14	–	–
CCCC[C@H](NC(=O)[C@H](CC(C)C)NC(=O)[C@H](CCC(N)=O)NC(=O)[C@@H](NC(=O)[C@H](CCC(=O)O)NC(=O)[C@H](CO)NC(=O)[C@@H](NC(=O)[C@@H](N)CO)C(C)C)[C@@H](C)CC)C(=O)N[C@@H](Cc1c[nH]cn1)C(=O)N[C@@H](CC(N)=O)C(=O)N[C@@H](CC(C)C)C(=O)NCC(=O)N[C@@H](CCCCN)C(=O)N[C@@H](Cc1c[nH]cn1)C(=O)N[C@@H](CC(C)C)C(=O)N[C@@H](CC(N)=O)C(=O)N[C@@H](CO)C(=O)N[C@@H](C)CC(=O)N[C@@H](CCC(=O)O)C(=O)N[C@@H](CCCNC(=N)N)C(=O)N[C@H](C(=O)N[C@@H](CCC(=O)O)C(=O)N[C@@H](Cc1cccc2ccccc12)C(=O)N[C@@H](CC(C)C)C(=O)N[C@@H](CCCNC(=N)N)C(=O)N[C@@H](CCCCN)C(=O)N[C@@H](CC(C)C)C(=O)N[C@@H](CC(C)C)C(=O)N[C@@H](CCC(N)=O)C(=O)N[C@@H](CC(=O)O)C(=O)N[C@H](C(=O)N[C@@H](Cc1c[nH]cn1)C(=O)N[C@@H](CC(N)=O)C(=O)N[C@@H](Cc1ccccc1)C(N)=O)C(C)C)C(C)C [SEQ ID NO: 18, [Nle^8, β-hAla^18,1-Nal^23, Leu^27] hPTH (1-34)-NH2] (H-SVSEIQL[Nle]HNLGKHLNS[β3hA]ERVE[1Nal]LRKLLQDVHNF-NH2)	0.22	281	61	–	281
CCCC[C@H](NC(=O)CCNC(=O)[C@H](CCCCN)NC(=O)[C@H](CC(C)C)NC(=O)[C@H](Cc1c[nH]cn1)NC(=O)[C@H](CCCCN)NC(=O)CNC(=O)[C@H](CC(C)C)NC(=O)[C@H](CO)NC(=O)[C@H](Cc1c[nH]cn1)NC(=O)[C@H](CCCC)NC(=O)[C@H](CC(C)C)NC(=O)[C@H](CCC(N)=O)NC(=O)[C@@H](NC(=O)[C@H](CCC(=O)O)NC(=O)[C@H](CO)NC(=O)[C@@H](NC(=O)C(C)(C)N)C(C)C)[C@@H](C)CC)C(=O)N[C@@H](CCC(=O)O)C(=O)N[C@@H](CCCNC(=N)N)C(=O)N[C@H](C(=O)N[C@@H](CCC(=O)O)C(=O)N[C@@H](Cc1cccc2ccccc12)C(=O)N[C@@H](CC(C)C)C(=O)N[C@@H](CCCNC(=N)N)C(=O)N[C@@H](CCCCN)C(=O)N[C@@H](CC(C)C)C(=O)N[C@@H](CC(C)C)C(=O)N[C@@H](CCC(N)=O)C(=O)N[C@@H](CCCNC(=N)N)C(=O)N[C@H](C(=O)N[C@@H](Cc1c[nH]cn1)C(=O)N[C@@H](CCC(=O)O)C(=O)N[C@@H](CCC(=O)O)C(N)=O)C(C)C)C(C)C [SEQ ID NO: 6, [Aib^1, Nle^8,18, Ser^10, Lys^16, β-Ala^17,1-Nal^23, Leu^27, Arg^30, Glu^33, Glu^34] hPTH (1-34)-NH2] (H-[Aib]VSEIQL[Nle]HSLGKHLK[βAla][Nle]ERVE[1Nal]LRKLLQRVHEE-NH2; N-terminus assumed)	0.03	267	7	–	–
